{"source": "the supplement of paper PMC9663587", "key": {"[1]": {"compound": "CC(=O)c1c(C)c2cnc(Nc3ccc(N4CCNCC4)cn3)nc2n(C2CCCC2)c1=O", "assay": "GR value, 72 h; higher = faster growth (1 = untreated, <0 = killing);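 note: breast cancer and non-malignant breast epithelial lines, nine half-log doses, viable cells counted by Hoechst and LIVE/DEAD dye imaging versus time-zero plates and DMSO controls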"}, "[2]": {"compound": "CCOc1cc2ncc(C#N)c(Nc3ccc(OCc4ccccn4)c(Cl)c3)c2cc1NC(=O)/C=C/CN(C)C [Neratinib/HKI272]", "assay": "GR value, 72 h; higher = faster growth (1 = untreated, <0 = killing)"}, "[3]": {"compound": "CCN1CCN(Cc2ccc(Nc3ncc(F)c(-c4cc(F)c5nc(C)n(C(C)C)c5c4)n3)nc2)CC1", "assay": "increase in dead-cell fraction, 72 h; higher = more death;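 note: breast cancer cell lines in 384-well plates, stained with Hoechst plus LIVE/DEAD far red dye and imaged, cells above an LDR intensity threshold counted dead, Hoechst-negative corpses included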"}, "[4]": {"compound": "CN1CC[C@H](c2c(O)cc(O)c3c(=O)cc(-c4ccccc4Cl)oc23)[C@H](O)C1 [Flavopiridol]", "assay": "increase in dead-cell fraction, 72 h; higher = more death"}, "[5]": {"compound": "CN(C)C(=O)c1cc2cnc(Nc3ccc(N4CCNCC4)cn3)nc2n1C1CCCC1 [LEE011/Ribociclib]", "assay": "increase in dead-cell fraction, 72 h; higher = more death"}, "[6]": {"compound": "CC(=O)c1c(C)c2cnc(Nc3ccc(N4CCNCC4)cn3)nc2n(C2CCCC2)c1=O", "assay": "increase in dead-cell fraction, 72 h; higher = more death"}}}
{"cell line": "UACC893", "values": [{"measurement": "GR value", "setting": "[1]; 0.0003162 µM", "result": 0.92, "unit": "GR"}, {"measurement": "GR value", "setting": "[1]; 0.001 µM", "result": 0.914, "unit": "GR"}, {"measurement": "GR value", "setting": "[1]; 0.003162 µM", "result": 0.79, "unit": "GR"}, {"measurement": "GR value", "setting": "[1]; 0.01 µM", "result": 0.671, "unit": "GR"}, {"measurement": "GR value", "setting": "[1]; 0.03162 µM", "result": 0.422, "unit": "GR"}, {"measurement": "GR value", "setting": "[1]; 0.1 µM", "result": 0.406, "unit": "GR"}, {"measurement": "GR value", "setting": "[1]; 0.3162 µM", "result": 0.366, "unit": "GR"}, {"measurement": "GR value", "setting": "[1]; 1 µM", "result": 0.358, "unit": "GR"}, {"measurement": "GR value", "setting": "[1]; 3.162 µM", "result": 0.355, "unit": "GR"}, {"measurement": "GR value", "setting": "[2]; 0.0003162 µM", "result": 1.06, "unit": "GR"}, {"measurement": "GR value", "setting": "[2]; 0.001 µM", "result": 0.922, "unit": "GR"}, {"measurement": "GR value", "setting": "[2]; 0.003162 µM", "result": 0.372, "unit": "GR"}, {"measurement": "GR value", "setting": "[2]; 0.01 µM", "result": -0.192, "unit": "GR"}, {"measurement": "GR value", "setting": "[2]; 0.03162 µM", "result": -0.409, "unit": "GR"}, {"measurement": "GR value", "setting": "[2]; 0.1 µM", "result": -0.604, "unit": "GR"}, {"measurement": "GR value", "setting": "[2]; 0.3162 µM", "result": -0.688, "unit": "GR"}, {"measurement": "GR value", "setting": "[2]; 1 µM", "result": -0.784, "unit": "GR"}, {"measurement": "GR value", "setting": "[2]; 3.162 µM", "result": -0.908, "unit": "GR"}, {"measurement": "increase in dead-cell fraction", "setting": "[3]; 0.001 µM", "result": -0.001}, {"measurement": "increase in dead-cell fraction", "setting": "[3]; 0.003162 µM", "result": 0.0022}, {"measurement": "increase in dead-cell fraction", "setting": "[3]; 0.01 µM", "result": 0.0063}, {"measurement": "increase in dead-cell fraction", "setting": "[3]; 0.03162 µM", "result": 0.0037}, {"measurement": "increase in dead-cell fraction", "setting": "[3]; 0.1 µM", "result": 0.0039}, {"measurement": "increase in dead-cell fraction", "setting": "[3]; 0.3162 µM", "result": 0.0024}, {"measurement": "increase in dead-cell fraction", "setting": "[3]; 1 µM", "result": 0.0009}, {"measurement": "increase in dead-cell fraction", "setting": "[3]; 3.162 µM", "result": -0.0005}, {"measurement": "increase in dead-cell fraction", "setting": "[3]; 10 µM", "result": 0.0324}, {"measurement": "increase in dead-cell fraction", "setting": "[4]; 0.0001 µM", "result": -0.0013}, {"measurement": "increase in dead-cell fraction", "setting": "[4]; 0.0003162 µM", "result": -0.0009}, {"measurement": "increase in dead-cell fraction", "setting": "[4]; 0.001 µM", "result": 0.0052}, {"measurement": "increase in dead-cell fraction", "setting": "[4]; 0.003162 µM", "result": -0.0042}, {"measurement": "increase in dead-cell fraction", "setting": "[4]; 0.01 µM", "result": -0.0006}, {"measurement": "increase in dead-cell fraction", "setting": "[4]; 0.03162 µM", "result": 0.0011}, {"measurement": "increase in dead-cell fraction", "setting": "[4]; 0.1 µM", "result": 0.0012}, {"measurement": "increase in dead-cell fraction", "setting": "[4]; 0.3162 µM", "result": 0.013}, {"measurement": "increase in dead-cell fraction", "setting": "[4]; 1 µM", "result": 0.132}, {"measurement": "increase in dead-cell fraction", "setting": "[5]; 0.001 µM", "result": -0.0008}, {"measurement": "increase in dead-cell fraction", "setting": "[5]; 0.003162 µM", "result": -0.0005}, {"measurement": "increase in dead-cell fraction", "setting": "[5]; 0.01 µM", "result": 0.0034}, {"measurement": "increase in dead-cell fraction", "setting": "[5]; 0.03162 µM", "result": 0.0015}, {"measurement": "increase in dead-cell fraction", "setting": "[5]; 0.1 µM", "result": 0.0055}, {"measurement": "increase in dead-cell fraction", "setting": "[5]; 0.3162 µM", "result": 0.0017}, {"measurement": "increase in dead-cell fraction", "setting": "[5]; 1 µM", "result": 0.0062}, {"measurement": "increase in dead-cell fraction", "setting": "[5]; 3.162 µM", "result": 0.0013}, {"measurement": "increase in dead-cell fraction", "setting": "[5]; 10 µM", "result": 0.0077}, {"measurement": "increase in dead-cell fraction", "setting": "[6]; 0.0003162 µM", "result": -0.0005}, {"measurement": "increase in dead-cell fraction", "setting": "[6]; 0.001 µM", "result": 0.0008}, {"measurement": "increase in dead-cell fraction", "setting": "[6]; 0.003162 µM", "result": -0.0028}, {"measurement": "increase in dead-cell fraction", "setting": "[6]; 0.01 µM", "result": 0.0018}, {"measurement": "increase in dead-cell fraction", "setting": "[6]; 0.03162 µM", "result": 0.006}, {"measurement": "increase in dead-cell fraction", "setting": "[6]; 0.1 µM", "result": 0.0063}, {"measurement": "increase in dead-cell fraction", "setting": "[6]; 0.3162 µM", "result": 0.0087}, {"measurement": "increase in dead-cell fraction", "setting": "[6]; 1 µM", "result": 0.0064}, {"measurement": "increase in dead-cell fraction", "setting": "[6]; 3.162 µM", "result": 0.0017}]}
